{"source": "patent US20050228180A1", "about": "“Alpha, omega-dicarboximide derivatives as useful uro-selective a1a adrenoceptor blockers” (priority 2002, published 2005)", "key": {"α1B adrenoceptor": {"molecular_target": "T1, α1B adrenoceptor (Rattus norvegicus, UniProt P15823)", "T1 construct": "from tissue; host or cells: rat liver membranes", "T1 sequence (P15823 1-515)": "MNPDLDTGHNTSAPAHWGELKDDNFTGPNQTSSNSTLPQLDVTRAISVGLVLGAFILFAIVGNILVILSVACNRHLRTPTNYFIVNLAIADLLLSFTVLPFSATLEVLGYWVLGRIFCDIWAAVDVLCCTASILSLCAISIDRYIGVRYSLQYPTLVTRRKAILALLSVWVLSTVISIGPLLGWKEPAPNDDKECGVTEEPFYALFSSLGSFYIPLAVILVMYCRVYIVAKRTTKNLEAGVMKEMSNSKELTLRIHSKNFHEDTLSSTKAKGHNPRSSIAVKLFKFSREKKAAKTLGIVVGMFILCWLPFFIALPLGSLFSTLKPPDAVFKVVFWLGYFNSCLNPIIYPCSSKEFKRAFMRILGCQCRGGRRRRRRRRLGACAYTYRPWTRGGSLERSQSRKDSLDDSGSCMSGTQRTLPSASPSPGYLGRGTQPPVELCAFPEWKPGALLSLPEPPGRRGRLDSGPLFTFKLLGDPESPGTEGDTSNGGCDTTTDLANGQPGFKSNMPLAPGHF", "assay": "Radioligand binding, [3H] prazosin displacement, rat liver membranes", "settings": "read-out: Affinity (Ki) α1B (Rat Liver)", "how_it_was_run": "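Rat membranes (submaxillary for α1A, liver for α1B; 150-250 μg protein) incubated with [3H]prazosin and compound in Tris 50 mM/EDTA 5 mM pH 7.4, 1 h at 24-25° C. Nonspecific binding with 300 nM prazosin; filtration, counting; Ki via Cheng–Prusoff.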"}, "[1]": {"molecular_target": "T2, α1B adrenoceptor (spleen) (Rattus norvegicus, UniProt P15823)", "T2 construct": "Isolated tissues were mounted in organ bath containing Krebs Henseleit buffer; from tissue; host or cells: isolated rat spleen", "T2 sequence (P15823 1-515)": "T1 sequence (P15823 1-515)", "assay": "In vitro functional assay, isolated spleen, phenylepinephrine contraction", "format": "cell-based", "settings": "read-out: α Adrenoceptor Subtype (pKB) α1B (converted)", "how_it_was_run": "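Rat aorta, spleen and prostate strips from urethane-anaesthetised male Wistar rats in Krebs-Henseleit at 37 °C (95% O2/5% CO2), 2 g or 1 g resting tension, 2 h equilibration. Norepinephrine (aorta) or phenylephrine (spleen, prostate) contraction curves run without and with compound at […]; antagonist affinity given as pKB.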"}, "conscious beagle dogs": {"tested_on": "conscious beagle dogs", "assay": "In vivo uroselectivity study: phenylephrine response on MAP and IUP", "set-up": "species or system dog", "settings": "30 μg/kg p.o.", "description": "In order to assess the uroselectivity in vivo, the effects of these compounds were studied on mean arterial pressure (MAP) and intraurethral pressure (UP) in conscious beagle dogs as per the method of Brune et al. (Pharmacol., 1996, 53:356). Briefly, male dogs were instrumented for chronic continuous measurement of arterial blood pressure by implanting a telemetry transmitter (TL11M2-D70-PCT, Data Sci. International, St. Paul, Minn. USA) into the femoral artery, two weeks prior to the study. During the recovery period, the animal was acclimatized to stay in the sling restraint. On the day of testing, overnight fasted animal was placed in the sling restraint. A Swan-Ganz. Balloon tipped catheter was introduced into the urethra at the level of prostate and the balloon was inflated (Brune. et. al. 1996). After recording the base line readings, effect of 16 μg/kg, phenylephrine (i.v.) on MAP and IUP was recorded. The response of phenylephrine to MAP and […] were recorded at 0.5, 1, 2, 3, 4, 6, 9 and 24 hours after the oral administration of vehicle or the test drug. The changes in MAP were recorded on line using Dataquest Software (Data Sci. International, St. Paul, Minn. USA). The change in phenylephrine response on […] administration after the test drug administration was calculated as percent change of that of control values. Area under curve was calculated, and the ratio of the values for MAP and IUP was used for calculating the uroselectivity (Table III)."}, "[2]": {"settings": "percent change of phenylephrine response over 24 hours"}}, "note": "Where a name gives a salt, the structure may show the parent alone."}
{"smiles": "CC(C)Oc1ccccc1N1CCN(CCCN2C(=O)C3CC(O)C(O)CC3C2=O)CC1", "note": "(centres unmarked) [Compound No. 23, 2-[3-{4-(2-Isopropoxyphenyl)piperazin-1-yl}propyl]-5,6-dihydroxy-3a,4,5,6,7,7a, hexahydro-1H-isoindole-1,3(2H)-dione-hydrochloride]", "values": [{"measurement": "Ki", "setting": "α1B adrenoceptor", "result": 127, "unit": "nM"}, {"measurement": "Kb", "setting": "[1]", "result": 7.41, "unit": "nM"}, {"measurement": "Uroselectivity Ratio IUP/MAP", "setting": "conscious beagle dogs", "result": 5.5}, {"measurement": "Area Under Curve IUP", "setting": "conscious beagle dogs; [2]", "result": 524}, {"measurement": "Area Under Curve MAP", "setting": "conscious beagle dogs; [2]", "result": 95}]}
